Experimental data as given in patent US12448371B2, “Inhibitor compounds” (Cincera Therapeutics Pty Ltd, priority 2019, dated 2025).
Counter-ions that a name gives are not always drawn.

Legend:
Des1 (h) = biological target: T1, Des1 (h) (Homo sapiens, UniProt O15121); test: Measurement of Dihydroceramide Desaturase-1 (Des-1) activity in intact Jurkat cells labeled with DhCer-C6-NBD (HPLC); format: cell-based; details: for IC50: intact Jurkat cells, given as concentration range, or <X / >X if measured at one concentration X only, read-out: Des1 (h) Jurkat IC50; for inhibition at 1 µM: Jurkat cells
T1 construct: endogenous in cells; host or cells: parental Jurkat cells
T1 sequence (O15121 1-323): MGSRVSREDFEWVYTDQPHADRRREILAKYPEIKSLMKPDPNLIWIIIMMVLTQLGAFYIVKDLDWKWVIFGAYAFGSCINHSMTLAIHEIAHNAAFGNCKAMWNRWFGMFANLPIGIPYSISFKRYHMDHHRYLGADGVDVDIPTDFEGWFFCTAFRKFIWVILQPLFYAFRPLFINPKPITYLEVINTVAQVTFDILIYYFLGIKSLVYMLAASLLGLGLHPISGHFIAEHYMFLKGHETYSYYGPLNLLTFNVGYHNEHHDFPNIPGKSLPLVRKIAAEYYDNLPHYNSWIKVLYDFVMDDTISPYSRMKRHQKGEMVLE
Protocol: Measurement of Dihydroceramide Desaturase-1 (Des-1) Activity
Compounds were assessed for Des-1 inhibitory activity. Measurement of Des1 activity was performed by HPLC using intact Jurkat cells labeled with DhCer-C6-NBD as described previously (Munoz-Olaya, J. M. et al. ChemMedChem 2008, 3, 946-953) with modifications to enhance sensitivity and reproducibility. These modifications included the use of parental Jurkat cells, 0.5% serum in the culture media, and cell harvesting via centrifugation at 500×g to maximise ceramide extraction. Extracted samples (50 ul) were analysed on a Waters HPLC coupled to a fluorescence detector using a 30 cm C18 reverse-phase column eluted with 1 ml/min 20% H2O and 80% acetonitrile, both with a 0.1% of trifluoroacetic acid. NBD-labelled substrate and product were quantitated with an excitation and emission wavelengths of 465 nm and 530 nm, respectively.

[1] = tested on: Connective Tissue Growth Factor (CTGF) gene expression; test: Real time quantitative PCR in TGFβ-stimulated human hepatic stellate cells (LX2) to detect CTGF gene expression; format: cell-based; details: CTGF mRNA in TGFβ-stimulated LX2 cells vs vehicle control; for inhibition at 5 µM: LX-2, 5 μM; for inhibition at 1 µM: LX-2, 1 μM; for inhibition at 10 µM: LX-2, 10 μM
Protocol: Real Time Quantitative Polymerase Chain Reaction in Human Hepatic Stellate Cells (LX2) to Detect Connective Tissue Growth Factor (CTGF) Gene Expression The hepatic stellate cell line, LX2 was maintained in DMEM (LifeTechnologies) with 2% heat-inactivated FBS, 100U penicillin (LifeTechnologies), 0.1 mg/mL streptomycin (LifeTechnologies), and 2 mM L-glutamine (LifeTechnologies) at 37° C. with 5% CO2. Cells were seeded into 6-well plates (200,000 cells per well, 2 mLs media) and grown overnight. The cells were changed to 2 mLs 0.5% FBS media for 24 hours prior to treatment. Treatments were added in 2 mLs fresh 0.5% FBS media (vehicle control, long/mL TGFβ alone (R&D Systems), 10 ng/mL TGFβ+inhibitors) and incubated for 24 hours. […] RNA was extracted using Qiagen RNeasy kit (cat #74104), according to manufacturer's instructions. RNA (1 μg) was used to generate cDNA using the Qiagen Quantitect Reverse Transcription Kit (cat #205311), and stored at -20° C. cDNA was diluted (1:25 final) and combined with Sybr Green (Qiagen cat #204143), forward and reverse primers (50 ng each) and run on Real Time PCR Thermocycler machine (RG-6000, Corbett) with the following PCR conditions: Hold 1: 50° C. for 2 min; Hold 2: 95° C. for 15 min; Cycling: 45 cycles of: 95° C. for 30 sec, 58° C. for 21 sec, 72° C. for 15 sec, Hold 3: 72° C. for 30 sec, Melt: 72° C. to 99° C. GAPDH primers (Forward: [NT]; Reverse: [NT] primers (Forward: [NT]; Reverse: [NT] primers available from Origene, cat #HP205671)].

IC50 (Des1 (h)) [nM]	Compound	other results
< 1000	N/C(=N/O)c1cnc(Nc2ncc(-c3ccc(OC(F)(F)F)cc3)o2)cn1 [Example 70, N′-Hydroxy-5-((5-(4-(trifluoromethoxy)phenyl)oxazol-2-yl)amino)pyrazine-2-carboximidamide]	inhibition at 5 µM [1]: > 90%
> 1000	N/C(=N\O)c1ccc(Nc2ncc(-c3ccc(C4CC4)cc3)o2)cn1 [Compound 120, 5-((5-(4-Cyclopropylphenyl)oxazol-2-yl)amino)-N′-hydroxypicolinimidamide]	inhibition at 1 µM (Des1 (h)): 10%; inhibition at 1 µM [1]: 40 to 50%; inhibition at 10 µM [1]: 40 to 50%
< 100	CN(O)C(=O)c1ccc(Nc2ncc(-c3ccc(C(F)(F)F)cc3)o2)cn1 [Example 20, N-Nydroxy-N-methyl-5-((5-(4-(trifluoromethyl)phenyl)oxazol-2-yl)amino)picolinamide]	inhibition at 1 µM [1]: 10 to 20%; inhibition at 10 µM [1]: 70 to 80%
< 1000	N/C(=N/O)c1ccc(Nc2cc(-c3ccc(C(F)(F)F)cn3)no2)cn1 [Example 75, N′-Hydroxy-5-((3-(5-(trifluoromethyl)pyridin-2-yl)isoxazol-5-yl)amino)picolinimidamide]	inhibition at 5 µM [1]: > 90%
< 1000	N/C(=N/O)c1ccc(Nc2cnn(-c3ccc(Cl)cn3)c2)cn1 [Compound 103, 5-((1-(5-Chloropyridin-2-yl)-1H-pyrazol-4-yl)amino)-N′-hydroxypicolinimidamide]	inhibition at 5 µM [1]: 70 to 80%
< 1000	N/C(=N\O)c1cnc(Nc2ncn(-c3ccc(C(F)(F)F)cc3)n2)cn1 [Compound 106, N′-Hydroxy-5-((1-(4-(trifluoromethyl)phenyl)-1H-1,2,4-triazol-3-yl)amino)pyrazine-2-carboximidamide]	inhibition at 1 µM [1]: 30 to 40%
< 1000	N/C(=N\O)c1ccc(Nc2ccn(-c3ccc(C(F)(F)F)cc3)n2)cn1 [Example 74, N′-Hydroxy-5-((1-(4-(trifluoromethyl)phenyl)-1H-pyrazol-3-yl)amino)picolinimidamide]	inhibition at 5 µM [1]: 80 to 90%
< 1000	N/C(=N\O)c1ncc(Nc2ncc(-c3ccc(C(F)(F)F)cc3)o2)cn1 [Example 55, N′-Hydroxy-5-((5-(4-(trifluoromethyl)phenyl)oxazol-2-yl)amino)pyrimidine-2-carboximidamide]	inhibition at 1 µM [1]: 20 to 30%; inhibition at 10 µM [1]: 40 to 50%
10 to 100	CN(O)C(=O)Nc1ccc(Nc2ncc(-c3ccc(C(F)(F)F)cc3)o2)cn1 [Example 35, 1-Hydroxy-1-methyl-3-(5-((5-(4-(trifluoromethyl)phenyl)oxazol-2-yl)amino)pyridin-2-yl)urea]	–
< 1000	O=CNNC(=O)c1ccc(Nc2ncc(-c3ccc(C(F)(F)F)cc3)o2)cn1 [Compound 93, N′-formyl-5-((5-(4-(trifluoromethyl)phenyl)oxazol-2-yl)amino)picolinohydrazide]	–
10 to 100	O=C(NC[C@@H](O)CO)c1ccc(Nc2ncc(-c3ccc(C(F)(F)F)cn3)o2)cn1 [Compound 95, (R)—N-(2,3-dihydroxypropyl)-5-((5-(5-(trifluoromethyl)pyridin-2-yl)oxazol-2-yl)amino)picolinamide]	–
< 1000	Oc1ccc(Nc2ncc(-c3ccc(OC(F)(F)F)cc3)o2)nc1 [Compound 105, 6-((5-(4-(Trifluoromethoxy)phenyl)oxazol-2-yl)amino)pyridin-3-ol]	–
100 to 1000	N=C(NO)c1ccc(Nc2nnc(-c3ccc(C(F)(F)F)c(F)c3)o2)cn1 [Example 6, 5-((5-[3-Fluoro-4-(trifluoromethyl)phenyl]-1,3,4-oxadiazol-2-yl)amino)-N-hydroxypyridine-2-carboximidamide]	–
100 to 1000	N/C(=N\O)c1ccc(Nc2ncc(-c3ccc(OC(F)F)cc3)o2)cn1 [Example 51, 5-((5-(4-(Difluoromethoxy)phenyl)oxazol-2-yl)amino)-N′-hydroxy picolinimidamide]	–
< 100	O=C(NC[C@@H](O)CO)c1ccc(Nc2ncc(-c3ccc(C(F)(F)F)cc3)o2)nn1 [Example 41, (R)—N-(2,3-Dihydroxypropyl)-6-((5-(4-(trifluoromethyl)phenyl)oxazol-2-yl)amino)-pyridazine-3-carboxamide]	–

More lines, now with the values behind:

Compound	IC50 (Des1 (h)) [nM]	other results
N/C(=N/O)c1ccc(Nc2ncn(-c3ccc(C(F)(F)F)cn3)n2)cn1 [Compound 107, N′-Hydroxy-5-((1-(5-(trifluoromethyl)pyridin-2-yl)-1H-1,2,4-triazol-3-yl)amino)picolinimidamide]	< 1000	inhibition at 5 µM [1]: > 90%
Oc1cnc(Nc2ncc(-c3ccc(C(F)(F)F)cc3)o2)cc1O [Example 29, 6-((5-(4-(Trifluoromethyl)phenyl)oxazol-2-yl)amino)pyridine-3,4-diol]	< 1000	inhibition at 1 µM [1]: > 90%; inhibition at 10 µM [1]: > 90%
N/C(=N\O)c1nnc(Nc2ncc(-c3ccc(C(F)(F)F)cc3)o2)cc1O [Example 42, N′,4-Dihydroxy-6-((5-(4-(trifluoromethyl)phenyl)oxazol-2-yl)amino)pyridazine-3-carboximidamide]	1 to 10	inhibition at 1 µM [1]: 10 to 20%; inhibition at 10 µM [1]: 40 to 50%
N/C(=N\O)c1cnc(Nc2ccn(-c3ccc(C(F)(F)F)cn3)n2)cn1 [Compound 112, N′-Hydroxy-5-((1-(5-(trifluoromethyl)pyridin-2-yl)-1H-pyrazol-3-yl)amino)pyrazine-2-carboximidamide]	< 1000	inhibition at 1 µM [1]: > 90%
O=C(NCC(O)CO)c1ccc(Nc2ncc(-c3ccc(C(F)(F)F)cc3)o2)cn1 (racemic) [Example 17, rac-N-(2,3-Dihydroxypropyl)-5-((5-[4-(trifluoromethyl)phenyl]-1,3-oxazol-2-yl)amino) picolinamide]	1 to 10	–
N/C(=N\O)c1ccc(Nc2ncc(-c3ccc(C(F)(F)F)cc3)o2)nc1 [Example 3, N′-Hydroxy-6-((5-(4-(trifluoromethyl)phenyl)oxazol-2-yl)amino)nicotinimidamide hydrochloride]	100 to 1000	–
Cc1nc(Nc2cnc(/C(N)=N/O)c(O)c2)oc1-c1ccc(C(F)(F)F)cc1 [Example 39, N′,3-Dihydroxy-5-((4-methyl-5-(4-(trifluoromethyl)phenyl)oxazol-2-yl)amino)picolinimidamide]	< 1000	–
N=C(NO)c1ccc(Nc2ncc(-c3ccc(F)c(F)c3)o2)nn1 [Example 48, 6-((5-(3,4-Difluorophenyl)oxazol-2-yl)amino)-N′-hydroxypyridazine-3-carboximidamide]	1 to 10	–
O=C(NO)c1ncc(Nc2nc(-c3ccc(C(F)(F)F)cc3)co2)cn1 [Example 12, N-Hydroxy-5-((4-[4-(trifluoromethyl)phenyl]-1,3-oxazol-2-yl)amino)pyrimidine-2-carboxamide]	1000 to 10000	–
N/C(=N\O)c1ncc(Nc2ncc(-c3ccc(C(F)(F)F)c(F)c3)o2)cc1O [Example 43, 5-((5-(3-Fluoro-4-(trifluoromethyl)phenyl)oxazol-2-yl)amino)-N′,3-dihydroxypicolinimidamide]	1 to 10	–
N/C(=N/O)c1ccc(Nc2nnc(-c3ccc(Cl)cn3)o2)cn1 [Example 71, 5-((5-(5-Chloropyridin-2-yl)-1,3,4-oxadiazol-2-yl)amino)-N′-hydroxypicolinimidamide]	> 1000	inhibition at 1 µM (Des1 (h)): 13%
